In test [1] the test system is adipocytes humains matures. Kind of test: Lipolysis: glycerol released by mature adipocytes (AdipoLyze Detection Assay). The test is classed as cell-based. Particulars: Adipocyte, read-out: augmentation de la quantité de glycérol secrété par les adipocytes. From the text:
Les préadipocytes primaires sous-cutanés humains fournis par Lonza ont été mis en culture (10 000 cellules/puits dans des plaques de 96 puits) dans un milieu de croissance (PGM-2, Lonza, PT-9502) pendant une nuit. A J1, les cellules ont été mises dans le milieu de différenciation pendant 12 jours pour acquérir les caractéristiques des adipocytes matures. […]

The target of test [2] is T1, Sirt1 (Homo sapiens, UniProt Q96EB6).
T1 construct: purchased Cisbio
T1 sequence (Q96EB6 1-747): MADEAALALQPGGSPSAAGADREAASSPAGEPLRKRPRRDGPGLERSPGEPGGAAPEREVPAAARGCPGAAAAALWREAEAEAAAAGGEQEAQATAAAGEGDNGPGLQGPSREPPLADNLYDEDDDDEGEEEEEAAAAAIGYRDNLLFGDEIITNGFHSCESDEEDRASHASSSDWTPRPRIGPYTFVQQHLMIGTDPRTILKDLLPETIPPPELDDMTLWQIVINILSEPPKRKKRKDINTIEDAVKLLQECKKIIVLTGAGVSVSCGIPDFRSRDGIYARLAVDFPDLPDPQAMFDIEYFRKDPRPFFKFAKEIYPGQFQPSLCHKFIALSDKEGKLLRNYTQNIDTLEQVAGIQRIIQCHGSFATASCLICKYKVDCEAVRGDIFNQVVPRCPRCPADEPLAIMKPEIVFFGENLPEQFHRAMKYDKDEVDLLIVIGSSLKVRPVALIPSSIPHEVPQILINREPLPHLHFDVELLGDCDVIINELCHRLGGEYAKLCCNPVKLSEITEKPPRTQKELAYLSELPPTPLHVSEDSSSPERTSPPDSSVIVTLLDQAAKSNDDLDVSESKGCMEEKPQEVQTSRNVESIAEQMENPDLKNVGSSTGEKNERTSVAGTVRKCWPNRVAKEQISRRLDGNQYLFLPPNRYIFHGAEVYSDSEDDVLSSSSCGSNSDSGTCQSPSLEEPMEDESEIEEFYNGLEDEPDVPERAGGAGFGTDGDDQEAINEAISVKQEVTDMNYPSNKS
Put plainly: HTRF SIRT1 Assay (Cisbio): enzymatic activity of purified Sirt1. The format is biochemical. As to conditions: 0.5 h; at about 2,5 µM (1 µg/ml); vs enzyme without compound; read-out: % d'augmentation de l'activité de Sirt1. The procedure:
L'activité enzymatique de Sirt1 a été évaluée à l'aide du kit «HTRF^R SIRT1 Assay » vendu par la Société Cisbio. Lors de ces expériences, l'enzyme purifiée a été incubée à température ambiante en présence du NAD (cofacteur) de son substrat acétylé et du composé à tester utilisé aux concentrations variant de 0,24 µM à 280 µM. « SIRT1 Activator 3 », un activateur commercial de Sirt1 a été utilisé comme un contrôle positif. Après 30 min d'incubation, la réaction enzymatique est arrêtée et la quantité de substrat acétylé restante est évaluée à l'aide d'un anticorps spécifique.
Une augmentation de l'activité enzymatique de Sirt1 en présence des composés décrits s'est traduite par une diminution de la quantité d'anticorps capable de se fixer sur le substrat et donc par une diminution de l'émission de fluorescence qui en résulte, comparé à la valeur obtenue avec l'enzyme seule. Les résultats sont exprimés en % d'augmentation de l'activité de Sirt1 par rapport à celle obtenue avec l'enzyme sans ajout des composés.

[3] abbreviates: 50 µM, mature adipocytes treated 72h, culture supernatant.

Like-named read-outs stand apart in the source and are kept apart here. Some results are limits rather than exact numbers.

On to `CC(=O)N(C)[C@H]1CC[C@@]2(C)[C@@H](CC[C@@H]3[C@@H]2CC[C@]2(C)[C@@H]([C@H](C)N(C)C)CC[C@@H]32)C1` [C2, N-[(3 β, 5 α, 20S)-20-(diméthylamino)pregnan-3-yl]-N-méthyl-acétamide], for which, in test [1] (setting [3]), the activation at 50 µM was determined as 24%.

Take `CC(=O)N(C)[C@H]1CC[C@@]2(C)C(=CC(=O)[C@H]3[C@@H]4CC[C@@H]5[C@H](C)OC(=O)[C@@]54CC[C@@H]32)C1` [C5, Acide 20 α-hydroxy-3 β-(N-méthylacétamido)-7-oxo-, γ-lactone pregn-5-èn-18-oïque]: in test [1] (setting [3]), the activation at 50 µM was found to be 14%.

Consider `CC(=O)N(C)[C@H]1CC[C@@]2(C)C(=C[C@H](O)[C@H]3[C@@H]4CC[C@@H]5[C@H](C)OC(=O)[C@@]54CC[C@@H]32)C1` [C4, Acide 3-(acétylméthylamino)-7,20-dihydroxy-, γ-lactone, (3 β, 7 β ,20S)-pregn-5-èn-18-oïque], for which the activation at 2.5 µM in test [2] was greater than 50%. For the same compound, in test [1] (setting [3]), the activation at 50 µM came out at 10%.

As to `CC(=O)N[C@H]1CC[C@@]2(C)C(=CC[C@H]3[C@@H]4CC[C@H]([C@H](C)NC(C)=O)[C@@]4(COC(C)=O)CC[C@@H]32)C1` (single isomer, unassigned; diac) [C3, Acétatede 3 β, 20 α-diacétamido-pregn-5-en-18-ol], in test [1] (setting [3]), the activation at 50 µM was 18%.

Regarding `CC(=O)N(C)[C@H]1CC[C@@]2(C)C(=CC[C@H]3[C@@H]4CC[C@@H]5[C@H](C)N(C(C)=O)C[C@@]54CC[C@@H]32)C1` [C6, N-acétyl-3 β-(N-méthylacétamido)-norcon-5-énine], the activation at 2.5 µM in test [2] is greater than 50%. Moreover, in test [1] (setting [3]), the activation at 50 µM was found to be 41%.

Regarding `C[C@@H]([C@H]1CC[C@H]2[C@@H]3CC[C@H]4C[C@@H](O)CC[C@]4(C)[C@H]3CC[C@]12C)N(C)C` [C1, 20-(diméthylamino)-, (3β,5α,20S)-pregnan-3-ol], in test [2], the activation at 2.5 µM is greater than 50%. In addition, the activation at 50 µM in test [1] (72 h) was 44%.

The values are drawn from patent EP2879657B1, “NOVEL SIRT1 ACTIVATORS AND PHARMACEUTICAL OR COSMETIC COMPOSITIONS COMPRISING THEM” (Centre National de la Recherche Scientifique (C.N.R.S.), priority 2012, dated 2014).
